Laboratory results taken from US20230017045A1, “PYRIDINE AND PYRIMIDINE CARBOXYLATE HERBICIDES AND METHODS OF USE THEREOF” (Dow AgroSciences LLC, priority 2017, published 2023).
Where two headings read alike, the source gives them in different places.

Test system: test plant species
Test: Post-emergent herbicidal activity test (greenhouse, foliar spray, visual growth reduction)
Type: in vivo
Details: post-emergence, 336 h, 140 g ai/ha, 14 days after application
Experimental: Post-emergent Test: Seeds or nutlets of the desired test plant species were planted in Sun Gro Metro-Mix® 360 planting mixture, which typically has a pH of 6.0 to 6.8 and an organic matter content of about 30 percent, in plastic pots with a surface area of 64 square centimeters. In some aspects, to ensure good germination and healthy plants, a fungicide treatment and/or other chemical or physical treatment was applied. The plants were grown for 7-21 d in a greenhouse with an approximate 15 h photoperiod which was maintained at 23-29° C. during the day and 22-28° C. during the night. Nutrients and water were added on a regular basis and supplemental lighting was provided with overhead metal halide 1000-Watt lamps as necessary. Plants were used for testing when they reached the first or second true leaf stage. A weighed amount, determined by the highest rate to be tested, of each test compound was placed in a 25 mL glass vial and was dissolved in 4 mL of a 97:3 v/v mixture of acetone and DMSO to obtain concentrated stock solutions. […] The concentrated stock solutions obtained were diluted with 20 mL of an aqueous mixture containing acetone, water, isopropyl alcohol, DMSO, […] crop oil concentrate, and X-77 surfactant in a 48.5:39:10:1.5:1.0:0.02 v/v ratio to obtain spray solutions containing the application rate. Compound requirements are based upon a 12 mL application volume at a rate of 187 liters per hectare (L/ha). Formulated compounds were applied to the plant material with an overhead Mandel track sprayer equipped with […] nozzles calibrated to deliver 187 L/ha over an application area of 0.64 square meters at a spray height of 18 inches (43 cm) above the average plant canopy height. Control plants were sprayed in the same manner with the solvent blank. The treated plants and control plants were placed in a greenhouse as described above and watered by subirrigation to prevent wash-off of the test compounds. After 14 d, the condition of the test plants as compared with that of the nontreated and control plants was determined visually and scored on a scale of 0 to 100 percent where 0 corresponds to no injury and 100 corresponds to complete control. In the reporting of the results, Table A: Percent Growth Reduction Conversion Table was used.

[1] = ALOMY: blackgrass (Alopecurus myosuroides), read-out: Visual Growth Reduction (%) 14 Days After Application, ALOMY
[2] = AMARE: redroot pigweed (Amaranthus retroflexus), read-out: Visual Growth Reduction (%) 14 Days After Application, AMARE
[3] = AVEFA: wild oat (Avena fatua), read-out: Visual Growth Reduction (%) 14 Days After Application, AVEFA
[4] = CHEAL: lambsquarters (Chenopodium album), read-out: Visual Growth Reduction (%) 14 Days After Application, CHEAL
[5] = CIRAR: canada thistle (Cirsium arvense), read-out: Visual Growth Reduction (%) 14 Days After Application, CIRAR
[6] = CYPES: yellow nutsedge (Cyperus esculentus), read-out: Visual Growth Reduction (%) 14 Days After Application, CYPES
[7] = DIGSA: crabgrass (Digitaria sanguinalis), read-out: Visual Growth Reduction (%) 14 Days After Application, DIGSA
[8] = ECHCG: barnyardgrass (Echinochloa crus-galli), read-out: Visual Growth Reduction (%) 14 Days After Application, ECHCG
[9] = IPOHE: ivy-leaf morning glory (Ipomoea hederacea), read-out: Visual Growth Reduction (%) 14 Days After Application, IPOHE
[10] = KCHSC: kochia (Bassia scoparia), read-out: Visual Growth Reduction (%) 14 Days After Application, KCHSC
[11] = ORYSA: rice (Oryza sativa), read-out: Visual Growth Reduction (%) 14 Days After Application, ORYSA
[12] = SETFA: giant foxtail (Setaria faberi), read-out: Visual Growth Reduction (%) 14 Days After Application, SETFA
[13] = SORVU: grain sorghum (Sorghum vulgare), read-out: Visual Growth Reduction (%) 14 Days After Application, SORVU
[14] = STEME: common chickweed (Stellaria media), read-out: Visual Growth Reduction (%) 14 Days After Application, STEME
[15] = TRZAS: wheat, spring (Triticum aestivum), read-out: Visual Growth Reduction (%) 14 Days After Application, TRZAS

Row | SMILES | pest or weed control at 140 g/ha [1] | pest or weed control at 140 g/ha [2] | pest or weed control at 140 g/ha [3] | pest or weed control at 140 g/ha [4] | pest or weed control at 140 g/ha [5] | pest or weed control at 140 g/ha [6] | pest or weed control at 140 g/ha [7] | pest or weed control at 140 g/ha [8] | pest or weed control at 140 g/ha [9] | pest or weed control at 140 g/ha [10] | pest or weed control at 140 g/ha [11] | pest or weed control at 140 g/ha [12] | pest or weed control at 140 g/ha [13] | pest or weed control at 140 g/ha [14] | pest or weed control at 140 g/ha [15]
1 | O=C(O)c1nc(-c2ccc(SC(F)(F)F)cc2)ccc1Cl [F94, 3-Chloro-6-(4-((trifluoromethyl)thio)phenyl)picolinic acid] | 0 to 29% | 0 to 29% | 0 to 29% | 0 to 29% | 30 to 44% | 0 to 29% | 0 to 29% | 0 to 29% | 60 to 74% | 0 to 29% | 0 to 29% | 0 to 29% | 0 to 29% | 0 to 29% | 0 to 29%
2 | O=C(O)c1nc(-c2ccc(C(F)(F)F)nc2)ccc1Cl [F95, 5-Chloro-6′-(trifluoromethyl)-[2,3′-bipyridine]-6-carboxylic acid] | 0 to 29% | 0 to 29% | 0 to 29% | 0 to 29% | 0 to 29% | 0 to 29% | 0 to 29% | 0 to 29% | 45 to 59% | 0 to 29% | 0 to 29% | 0 to 29% | 0 to 29% | 0 to 29% | 0 to 29%
3 | O=C(O)c1nc(-c2ccc(C(F)(F)F)cc2)c(Cl)cc1Cl [F96, 3,5-Dichloro-6-(4-(trifluoromethyl)phenyl)picolinic acid] | 0 to 29% | 30 to 44% | 0 to 29% | 60 to 74% | 30 to 44% | 0 to 29% | 0 to 29% | 0 to 29% | 75 to 84% | 0 to 29% | 0 to 29% | 45 to 59% | 60 to 74% | 0 to 29% | 0 to 29%
4 | COC(=O)c1nc(-c2ccc(SC(F)(F)F)cc2)ccc1Cl [F97, Methyl 3-chloro-6-(4-((trifluoromethyl)thio)phenyl)picolinate] | 0 to 29% | 0 to 29% | 0 to 29% | 0 to 29% | 0 to 29% | 0 to 29% | 0 to 29% | 0 to 29% | 0 to 29% | 0 to 29% | 0 to 29% | 0 to 29% | 0 to 29% | 0 to 29% | 0 to 29%
5 | COC(=O)c1nc(-c2ccc(SC(F)(F)F)cc2)c(Cl)cc1Cl [F98, Methyl 3,5-dichloro-6-(4-((trifluoromethyl)thio)phenyl)picolinate] | 0 to 29% | 0 to 29% | 0 to 29% | 0 to 29% | 0 to 29% | 0 to 29% | 0 to 29% | 0 to 29% | 0 to 29% | 0 to 29% | 0 to 29% | 0 to 29% | 0 to 29% | 0 to 29% | 0 to 29%
6 | COC(=O)c1nc(-c2ccc(C(F)(F)F)nc2)c(Cl)cc1Cl [F99, methyl 3,5-dichloro-6′-(trifluoromethyl)-[2,3′-bipyridine]-6-carboxylate] | 0 to 29% | 0 to 29% | 0 to 29% | 0 to 29% | 0 to 29% | 0 to 29% | 0 to 29% | 0 to 29% | 0 to 29% | 0 to 29% | 0 to 29% | 0 to 29% | 0 to 29% | 0 to 29% | 0 to 29%
7 | COC(=O)c1nc(-c2ccc(I)cc2)c(F)cc1Cl [F100, Methyl 3-chloro-5-fluoro-6-(4-iodophenyl) picolinate] | 0 to 29% | 0 to 29% | 0 to 29% | 0 to 29% | 45 to 59% | 30 to 44% | 0 to 29% | 0 to 29% | 30 to 44% | 0 to 29% | 0 to 29% | 0 to 29% | 30 to 44% | 0 to 29% | 0 to 29%
8 | COC(=O)c1nc(-c2ncc(C(F)(F)F)cc2Cl)ccc1Cl [F101, methyl 3′,5-dichloro-5′-(trifluoromethyl)-[2,2′-bipyridine]-6-carboxylate] | 0 to 29% | 95 to 100% | 0 to 29% | 95 to 100% | 85 to 94% | 75 to 84% | 95 to 100% | 85 to 94% | 95 to 100% | 95 to 100% | 0 to 29% | 75 to 84% | 95 to 100% | 0 to 29% | 60 to 74%
9 | COC(=O)c1nc(-c2ccc(C(F)(F)F)cc2F)c(Cl)cc1Cl [F102, Methyl 3,5-dichloro-6-(2-fluoro-4-(trifluoromethyl)phenyl)picolinate] | 0 to 29% | 45 to 59% | 0 to 29% | 60 to 74% | 0 to 29% | 0 to 29% | 0 to 29% | 0 to 29% | 60 to 74% | 0 to 29% | 0 to 29% | 0 to 29% | 60 to 74% | 0 to 29% | 0 to 29%
